The text below walks through data of patent US8298756B2, “Isolation, gene expression, and chemotherapeutic resistance of motile cancer cells” (Albert Einstein College of Medicine of Yeshiva University, priority 2004, dated 2012).

Molecules are shown by their SMILES.

For test [1], the system named is invasive cells and general population of carcinoma cells from MTLn3-derived tumors. The experiment in a line: Cell culture and apoptosis assay (Annexin V-Cy5 / PI) after drug challenge, invasive cells vs general population. Format: cell-based, rat. The settings on record: for drug tolerance (apoptotic index and cell viability) of invasive cells: as a percentage of all carcinoma cells, invasive vs general population of tumor cells, 24 hr recovery after drug, FIG. 3; for drug induced apoptotic index / cell death: invasive cells compared to carcinoma cells of the whole tumor, doxorobucin 17 μM, cisplatin 50 μM, etoposide 50 μM for 1 hr, 24 hrs recovery; for drug induced apoptotic index: Annexin V-Cy5; for cell death: PI staining. The procedure:
The cells collected by the needle collection procedure were subjected to drug challenge using doxorobucin (17 μM), cisplatin (50 μM) or etoposide (50 μM). The apoptotic status and viability of these cells was assessed by staining with propedium iodide (PI) and Annexin V-Cy5. […] The graph represents viability status and apoptotic index of the cells after being challenged by the anticancer drugs. Cell culture and apoptosis assay. The cells extruded from the needles and tumor cells FACS sorted were cultured in DMEM 20% FCS along with streptomycin and penicillin, for 16 hrs. Subsequently, the cells were challenged with either doxorobucin (17 μM) or cisplatin (50 μM) or etoposide (50 μM) for 1 hr, washed and allowed to recover for 24 hrs. The cells were then subjected to an apoptosis assay kit containing Annexin V Cy5 for staining the apoptotic cells and Propedium Iodide (PI) for staining the dead cells (BD Biosciences San Jose, Calif.). After staining the cells using the manufacturer's protocol, the cells were observed under a fluorescent microscope in the green, red and high red channel for GFP, PI and Cy5 respectively. The total number of GFP cells counted was compared to the number of PI positive and Annexin V-Cy5 positive cells. […] We challenged the invasive cells with three most commonly used anticancer drugs, doxorobucin, cisplatin and etoposide. […] We performed these studies on the invasive and general populations of cells from MTLn3-derived tumors. After treatment with the drugs the cells were allowed to recover for 24 hr. Subsequently, the apoptotic index and cell viability was measured as described in the Methods section.

The next test relates to MTLn3 cells. The settings on record: previous studies (Huigsloot et al., 2002); cited from earlier work.

Regarding `N.N.[Cl][Pt][Cl]` [cisplatin], in test [1], the “drug tolerance (apoptotic index and cell viability) of invasive cells” value is on record as “invasive cells are able to tolerate all three drugs better than the general population of tumor cells”; the “drug induced apoptotic index” value is reported as “lower drug induced apoptotic index”; the cell death entry is given as “lower cell death”. For the same compound, the induction of apoptosis result in the test with MTLn3 cells is on record as “induce apoptosis”.
Turning to `COc1cccc2c1C(=O)c1c(O)c3c(c(O)c1C2=O)C[C@@](O)(C(=O)CO)C[C@@H]3O[C@H]1C[C@H](N)[C@H](O)[C@H](C)O1` [doxorubicin], in test [1], the “drug tolerance (apoptotic index and cell viability) of invasive cells” value was “invasive cells are able to tolerate all three drugs better than the general population of tumor cells”; the “drug induced apoptotic index” value is given as “lower drug induced apoptotic index”; the cell death result is on record as “lower cell death”. Also, the induction of apoptosis entry in the test on MTLn3 cells is reported as “induce apoptosis”.
As to `COc1cc([C@@H]2c3cc4c(cc3[C@@H](O[C@@H]3O[C@@H]5CO[C@@H](C)O[C@H]5[C@H](O)[C@H]3O)[C@H]3COC(=O)[C@H]23)OCO4)cc(OC)c1O` [etoposide], in test [1], the “drug tolerance (apoptotic index and cell viability) of invasive cells” value is on record as “invasive cells are able to tolerate all three drugs better than the general population of tumor cells”; the “drug induced apoptotic index” value is “lower drug induced apoptotic index”; the cell death result is listed as “lower cell death”. Besides, in the test on MTLn3 cells, the induction of apoptosis result is listed as “induce apoptosis”.
